Laboratory results published in patent publication US20250144049A1, “METHODS, COMPOSITIONS, AND USES RELATED TO THE TREATMENT AND PREVENTION OF LEIGH SYNDROME” (Stealth BioTherapeutics Inc., priority 2023, published 2025).

Experiments:
15-lipoxygenase (15-LO) [1] = assay: 15(S)-HETE ELISA following RSL3 treatment, healthy fibroblasts; format: cell-based, human; settings: 700 nM RSL3, 1 μM compound, FIG. 10; for inhibition of 15-lipoxygenase (15(S)-HETE in supernatant): 24 hours
Description: (§1) Samples for the 15(S)-HETE ELISA were generated by the RSL3 cytoprotection assay described above. Healthy or Leigh fibroblasts were resuspended in assay medium, seeded at 200,000 cells per well in a clear, tissue culture-treated, 24-well plate. Cells were incubated at 37° C. for 24 hours. Supernatant was aspirated from each well following the incubation.
(§2) Fibroblasts from both a healthy individual and a patient diagnosed with Leigh syndrome were examined (but not all compounds were examined in each cell type). Activation of ferroptosis has been implicated as a driver of epilepsy, which is commonly associated with Leigh syndrome. […] Kahn-Kirby et al. PLOS One. […] As a key regulator of ferroptosis, 15-LO serves as a rational therapeutic target in Leigh syndrome.

15-lipoxygenase (15-LO) [2] = assay: 15(S)-HETE ELISA following RSL3 treatment, Leigh fibroblasts; format: cell-based, human; settings: 700 nM RSL3, 1 μM compound, FIG. 11
Description: as §1, §2

[3] = Pharmacokinetics of Compound 3 and Compound 4 after five daily subcutaneous doses, plasma, heart, brain; format: in vivo, C57BL/6 mice; settings: for tolerability: dose levels up to 60 mg/kg, SC injection, 5 daily doses
Description: • Animals: Male/C57Bl/6 mice/-18-25 grams were received from an approved vendor. • Fasting was not required for this study. • Body weights were recorded prior to dose administration. The volume of each dose delivered (mL/kg) was based on each individual animal's body weight. • This was a multiple dose terminal study dosed once per day over 5 days. Mice were taken down following their 5th and final dose. • Doses were administered in accordance with test facility standard operating procedures. […] Any abnormalities were recorded. • Pre-formulated Compound 3 and Compound 4 were provided by Study sponsor ready to be dosed for each day in accordance with the Study Design set forth in Table 1, below.
b) Sample collection—Post Dosing: • Terminal blood samples were collected via cardiac puncture following inhalation of anesthesia in accordance with test facility standard operating procedures. • Blood samples were collected into tubes with appropriate anticoagulant. The tubes were stored on wet ice until processed to plasma by centrifugation (3500 rpm at 5° C. for 10 minutes) within 20 minutes of collection. Sample aliquots of 100 μL were transferred into individual uniquely labeled matrix tubes and stored at nominal −80° C. until transferred to analytical chemistry for analysis by LC/MS/MS. • Immediately following each terminal blood collection for all groups, animals were sacrificed and perfused with cold PBS. The following tissues were collected: heart and brain in accordance with Table 2. • Plasma and tissue samples were processed for analysis by LC/MS/MS to determine the amounts/concentrations reported in the FIGS. 18-21.

[4] = tested on: reverse electron transfer (RET) from Complex II to Complex I in isolated murine brain mitochondria; assay: Reverse electron transfer (RET) assay, H2O2 (ROS) production; format: biochemical, mouse
Description: For mitochondria isolation, brains were dissected at a local vivarium (Explora, MA, USA) from C57BL/6 mice that were supplied by The Jackson Laboratory (Maine, USA). Brains were collected on ice in cold mitochondria isolation buffer (225 mM mannitol, 75 mM sucrose, 5 mM HEPES, 1 mM EGTA, pH 7.4). In a glass petri dish, brains were mixed with a few drops of buffer and cut into small pieces resembling a mash using scissors. Mitochondrial isolation buffer was added at 1:10-1:20 (w/v) and tissue mash was transferred to a glass Dounce tissue homogenizer and further homogenized with 10-15 strokes. Mash was centrifuged at 1,000×g for 10 min to pellet and remove cellular debris, etc. Supernatant was transferred into 2.0 mL tubes and centrifuged at 10,000×g. The mitochondria pellet was resuspended in the desired amount of miR05 buffer (Oroboros, Innsbruck, Austria) and added directly to the Oroboros oxygraph-2K (Oroboros, Innsbruck, Austria) for an experiment or maintained on ice for up to 4 hours.
All high-resolution respirometry experiments were conducted using the Oroboros O2k-Fluorespirometer (Oroboros, Innsbruck, Austria). The Oroboros O2k-Fluorespirometer was calibrated daily using the air calibration protocol on DatLab 7.4 (Oroboros, Innsbruck, Austria). Prior to each experiment requiring the fluorescence module, the AmpR calibration protocol from DatLab 7.4 was used to calibrate the fluorescence signal. Initial data analysis, including setting of marks, was performed using DatLab 7.4.
Reverse electron transfer (RET) was measured using HRR with the Oroboros O2k and DatLab 7.4. To configure the Amp channel, the light or “Fluo intensity” was set at 1000 and the amplification of signal or “Gain for Fluo sensor” at 500 and illumination in the chamber was turned “off”. To calibrate the Fluo sensors, the Instrument protocol “AmR calibration” was used. […]
Statistical analysis was performed using GraphPad Prism 9. […] RET Assay data were analyzed by 2-way ANOVA using a p-value of 0.05. […]

[5] = 2 μM compound prior to addition of succinate (10 mM)

Structure (SMILES): CC1=C(C)C(=O)C(CC[C@@](C)(O)COCCC[Si](C)(C)C)=C(C)C1=O [Compound 3]
- inhibition of 15-lipoxygenase (15(S)-HETE in supernatant) (15-lipoxygenase (15-LO) [1]): inhibited 15-lipoxygenase
- 15-lipoxygenase inhibition compared among test articles (15-lipoxygenase (15-LO) [1]): superior to Compounds 2, 4 and Vatiquinone
- 15-LO inhibition compared among test articles (15-lipoxygenase (15-LO) [2]): roughly equivalent protective effect
- plasma exposure versus dose ([3]; mouse, 20 mg/kg and 60 mg/kg SC): roughly proportional to dose
- heart exposure based on AUC, Compound 3 versus Compound 4 ([3]; mouse, SC): slightly higher
- exposure (Cmax and AUC) heart versus brain ([3]; mouse, SC, after 5th dose): higher in heart than in brain
- tolerability ([3]; mouse): well tolerated
- concentration in heart tissue ([3]; mouse, up to 2 hours post administration after 5 days, Compound 3 20 and 60 mg/kg, Compound 4 60 mg/kg SC, FIG. 18): up to microgram quantities of drug per gram of heart tissue
- concentration in brain tissue ([3]; mouse, up to 2 hours post administration after 5 days, Compound 3 20 and 60 mg/kg, Compound 4 60 mg/kg SC, FIG. 19): up to microgram quantities of drug per gram of brain tissue
- H2O2 production [4, 5]: statistically significant reduction

Structure (SMILES): CC1=C(C)C(=O)C(CC[C@](C)(O)CCCCCCCCC(F)(F)F)=C(C)C1=O [Compound 4]
- inhibition of 15-lipoxygenase (15(S)-HETE in supernatant) (15-lipoxygenase (15-LO) [1]): inhibited 15-lipoxygenase
- 15-lipoxygenase inhibition compared among test articles (15-lipoxygenase (15-LO) [1]): roughly equivalent protective effect
- 15-LO inhibition compared among test articles (15-lipoxygenase (15-LO) [2]): roughly equivalent protective effect
- brain exposure based on AUC, Compound 4 versus Compound 3 ([3]; male, C57BL/6, mouse, in vivo, sc): somewhat higher than Compound 3
- tolerability ([3]; mouse): well tolerated
- Tmax, Compound 4 versus Compound 3 ([3]; mouse, in vivo, sc): typically later
- exposure (Cmax and AUC) heart versus brain ([3]; mouse, in vivo, sc): no difference
- half-life, Compound 4 versus Compound 3 ([3]; mouse, in vivo, sc): tended to be longer
- H2O2 production ([4]; 1 μM compound prior to addition of succinate (10 mM)): statistically significant reduction
- H2O2 production [4, 5]: statistically significant reduction
